# According to patent US20250368620A1, “ARNT Degrading Compounds and Uses Thereof” (Celgene Corporation, priority 2024, published 2025):
# Target: T1, ARNT (Homo sapiens, UniProt P27540)
# T1 construct: an sgRNA targeting the C-terminus of the ARNT gene near the stop codon; endogenous in cells; host or cells: HEK293 ARNT-HiBiT knock-in, homozygous clone
# Experiment: ARNT degradation in a HiBiT system (HEK293 ARNT-HiBiT Knock-In cell line)
# Assay type: cell-based
# Conditions: half-maximal degradation concentration; HEK293 ARNT-HiBiT KI cells, 4h of treatment, luminescence
# Procedure: Compounds of Formula (I) were tested for ARNT degradation in a HiBiT system. A HEK293 ARNT-HiBiT Knock-In cell line was generated using CRISPR/Cas9 technology. Briefly, HEK293 cells were electroporated with the Neon system with an sgRNA targeting the C-terminus of the ARNT gene near the stop codon ([…] (SEQ ID NO: 1); chr 1: 150,812,014-150,812,034) and the HiBiT donor DNA template (80 nucleotides homology arms upstream and downstream of the insert site, with a GSGS (SEQ ID NO: 2) linker). A homozygous clone was selected after Sanger sequencing, and genetic edition was further validated using Nano-Glo HiBiT blotting system. HEK293 ARNT-HiBiT KI cells were cultured in DMEM+10% FBS at 37° C. and 5% CO2. For the assay, cells were seeded at 10,000 cells/well in white 384 plates (Corning #3570) in 22.5 μl of culture medium without phenol red. Test compounds were spotted in 384-well plates by an acoustic dispenser (10 concentrations, semi-log dilution, in 100% DMSO). Before treatment, compounds were diluted 1:100 or 1:1,000 in culture medium without phenol red, and cells were treated with 2.5 μl of diluted compounds 18h after seeding (final top concentration: 3 or 0.3 μM). After 4h of treatment, plates were equilibrated at room temperature for 30 min, and 25 μl of NANO-GLO® HiBiT Lytic reagent were added per well. Luminescence was measured on a plate reader 15 min after incubation with the detection reagent. Data were analyzed using the Genedata Screener Software version 19, and normalization was performed using the DMSO treated wells as Neutral Control and medium only (without cells) wells as Scale Reference. For curve fitting, the smart fit condensing method with a 4-parameters Hill model was used and the half-maximal degradation concentration (DC50) was calculated.
# T1 sequence (P27540 whole entry): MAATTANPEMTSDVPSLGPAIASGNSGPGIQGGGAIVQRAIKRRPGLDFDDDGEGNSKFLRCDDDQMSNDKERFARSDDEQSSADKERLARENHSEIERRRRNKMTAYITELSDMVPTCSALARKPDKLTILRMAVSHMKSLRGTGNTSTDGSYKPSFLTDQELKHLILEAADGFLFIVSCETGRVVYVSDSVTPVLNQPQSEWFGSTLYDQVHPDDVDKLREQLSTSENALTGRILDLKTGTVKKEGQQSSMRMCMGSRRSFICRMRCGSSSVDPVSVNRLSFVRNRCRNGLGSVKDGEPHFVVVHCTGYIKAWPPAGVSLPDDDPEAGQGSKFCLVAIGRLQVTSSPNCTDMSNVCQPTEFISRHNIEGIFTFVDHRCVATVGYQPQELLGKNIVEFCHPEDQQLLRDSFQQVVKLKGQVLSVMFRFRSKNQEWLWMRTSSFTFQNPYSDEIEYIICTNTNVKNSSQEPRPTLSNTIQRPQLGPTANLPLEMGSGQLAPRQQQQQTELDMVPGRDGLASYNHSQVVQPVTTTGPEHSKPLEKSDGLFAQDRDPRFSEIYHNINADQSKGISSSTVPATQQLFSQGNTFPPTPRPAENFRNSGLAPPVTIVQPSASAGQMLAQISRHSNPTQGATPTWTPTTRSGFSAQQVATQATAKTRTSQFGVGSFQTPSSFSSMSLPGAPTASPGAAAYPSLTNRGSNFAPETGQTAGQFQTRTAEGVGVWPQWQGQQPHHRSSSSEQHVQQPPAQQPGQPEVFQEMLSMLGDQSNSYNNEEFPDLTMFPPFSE
row,DC50,Compound
1,1 nM,"C[C@@H]1c2cc(C(=O)N3Cc4c(ccc(Cl)c4F)[C@@H]3CN3CC(F)(F)C3)ccc2C(=O)N1[C@H]1CCC(=O)NC1=O [Compound 15, (S)-3-((R)-5-((R)-5-chloro-1-((3,3-difluoroazetidin-1-yl)methyl)-4-fluoroisoindoline-2-carbonyl)-3-methyl-1-oxoisoindolin-2-yl)piperidine-2,6-dione]"
2,0.29 nM,"C[C@@H]1c2cc(C(=O)N3Cc4ccccc4[C@@H]3CN(C)C)ccc2C(=O)N1[C@H]1CCC(=O)NC1=O [Compound 1, (S)-3-((R)-5-((R)-1-((dimethylamino)methyl)isoin-doline-2-carbonyl)-3-methyl-1-oxoisoindolin-2-yl)piperidine-2,6-dione]"
3,1.3 nM,"C[C@@H]1c2cc(C(=O)N3Cc4c(ccc(Br)c4Cl)[C@@H]3C)ccc2C(=O)N1[C@H]1CCC(=O)NC1=O [Compound 24, (S)-3-((R)-5-((S)-5-bromo-4-chloro-1-methylisoindoline-2-carbonyl)-3-methyl-1-oxoisoindolin-2-yl)piperidine-2,6-dione]"
4,1.6 nM,"Cc1ccc2c(c1F)CN(C(=O)c1cc3c(cc1F)C(=O)N([C@H]1CCC(=O)NC1=O)[C@@H]3C)[C@H]2C [Compound 25, (S)-3-((R)-5-fluoro-6-((S)-4-fluoro-1,5-dimethylisoindoline-2-carbonyl)-1-methyl-3-oxoisoindolin-2-yl)piperidine-2,6-dione]"
5,1.3 nM,"C[C@@H]1c2cc(C(=O)N3Cc4cc(F)c(F)cc4[C@@H]3C)ccc2C(=O)N1[C@H]1CCC(=O)NC1=O [Compound 21, (S)-3-((R)-5-((S)-5,6-difluoro-1-methylisoindoline-2-carbonyl)-3-methyl-1-oxoisoindolin-2-yl)piperidine-2,6-dione]"
6,1.7 nM,"C[C@@H]1c2cc(C(=O)N3Cc4ccc(F)cc4[C@@H]3C)ccc2C(=O)N1[C@H]1CCC(=O)NC1=O [Compound 27, (S)-3-((R)-5-((S)-6-fluoro-1-methylisoindoline-2-carbonyl)-3-methyl-1-oxoisoindolin-2-yl)piperidine-2,6-dione]"
7,0.33 nM,"C[C@@H]1c2cc(C(=O)N3Cc4c(ccc(Cl)c4F)[C@@H]3CN(C)C)ccc2C(=O)N1[C@H]1CCC(=O)NC1=O [Compound 2, (S)-3-((R)-5-((R)-5-chloro-1-((dimethylamino)methyl)-4-fluoroisoindoline-2-carbonyl)-3-methyl-1-oxoisoindolin-2-yl)piperidine-2,6-dione]"
8,1.3 nM,"CCOc1ccc2c(c1C)CN(C(=O)c1ccc3c(c1)[C@@H](C)N([C@H]1CCC(=O)NC1=O)C3=O)[C@H]2C [Compound 23, (S)-3-((R)-5-((S)-5-ethoxy-1,4-dimethylisoindoline-2-carbonyl)-3-methyl-1-oxoisoindolin-2-yl)piperidine-2,6-dione]"
9,1.2 nM,"Cc1c(C2CC2)ccc2c1CN(C(=O)c1ccc3c(c1)[C@@H](C)N([C@H]1CCC(=O)NC1=O)C3=O)[C@H]2C [Compound 18, (S)-3-((R)-5-((S)-5-cyclopropyl-1,4-dimethylisoindoline-2-carbonyl)-3-methyl-1-oxoisoindolin-2-yl)piperidine-2,6-dione]"

# Second part, the molecule before the results:
row,Compound,DC50
1,"C[C@@H]1c2cc(C(=O)N3Cc4c(Br)cccc4[C@@H]3CN(C)C)ccc2C(=O)N1[C@H]1CCC(=O)NC1=O [Compound 3, (S)-3-((R)-5-((R)-4-bromo-1-((dimethylamino)methyl)isoin-doline-2-carbonyl)-3-methyl-1-oxoisoindolin-2-yl)piperidine-2,6-dione]",0.39 nM
2,"C[C@H]1c2ccc(Br)c(F)c2CN1C(=O)c1ccc2c(c1)CN(C1CCC(=O)NC1=O)C2=O (stereo partly drawn) [Compound 36, 3-(5-((S)-5-bromo-4-fluoro-1-methylisoindoline-2-carbonyl)-1-oxoisoindolin-2-yl)piperidine-2,6-dione]",3.4 nM
3,"C[C@@H]1c2cc(C(=O)N3Cc4cc(C(F)(F)F)ccc4[C@@H]3CN(C)C)ccc2C(=O)N1[C@H]1CCC(=O)NC1=O [Compound 8, (S)-3-((R)-5-((R)-1-((dimethylamino)methyl)-5-(trifluoromethyl)isoindoline-2-carbonyl)-3-methyl-1-oxoisoindolin-2-yl)piperidine-2,6-dione]",0.61 nM
4,"C[C@@H]1c2cc(C(=O)N3Cc4c(ccc(Cl)c4F)[C@@H]3CN3CC4CC3C4)ccc2C(=O)N1[C@H]1CCC(=O)NC1=O [Compound 7, (S)-3-((R)-5-((R)-1-((2-azabicyclo[2.1.1]hexan-2-yl)methyl)-5-chloro-4-fluoroisoindoline-2-carbonyl)-3-methyl-1-oxoisoindolin-2-yl)piperidine-2,6-dione]",0.48 nM
5,"C[C@@H]1c2cc(C(=O)N3Cc4c(ccc(Cl)c4F)[C@@H]3CN3CCC(F)CC3)ccc2C(=O)N1[C@H]1CCC(=O)NC1=O [Compound 12, (S)-3-((R)-5-((R)-5-chloro-4-fluoro-1-((4-fluoropiperidin-1-yl)methyl)isoindoline-2-carbonyl)-3-methyl-1-oxoisoindolin-2-yl)piperidine-2,6-dione]",0.73 nM
6,"COc1ccc2c(c1)CN(C(=O)c1ccc3c(c1)[C@@H](C)N([C@H]1CCC(=O)NC1=O)C3=O)[C@H]2CN(C)C [Compound 28, (S)-3-((R)-5-((R)-1-((dimethylamino)methyl)-5-methoxyisoindoline-2-carbonyl)-3-methyl-1-oxoisoindolin-2-yl)piperidine-2,6-dione]",1.7 nM
7,"C[C@@H]1c2cc(C(=O)N3Cc4c(ccc(C(F)(F)F)c4Cl)[C@@H]3C)ccc2C(=O)N1[C@H]1CCC(=O)NC1=O [Compound 34, (S)-3-((R)-5-((S)-4-chloro-1-methyl-5-(trifluoromethyl)isoindoline-2-carbonyl)-3-methyl-1-oxoisoindolin-2-yl)piperidine-2,6-dione]",3.1 nM
8,"C[C@@H]1c2cc(C(=O)N3Cc4c(ccc(Cl)c4F)[C@@H]3C)ccc2C(=O)N1[C@H]1CCC(=O)NC1=O [Compound 30, (S)-3-((R)-5-((S)-5-chloro-4-fluoro-1-methylisoindoline-2-carbonyl)-3-methyl-1-oxoisoindolin-2-yl)piperidine-2,6-dione]",1.9 nM
9,"COc1cccc2c1CN(C(=O)c1ccc3c(c1)[C@@H](C)N([C@H]1CCC(=O)NC1=O)C3=O)[C@H]2CN(C)C [Compound 11, (S)-3-((R)-5-((R)-1-((dimethylamino)methyl)-4-methoxyisoindoline-2-carbonyl)-3-methyl-1-oxoisoindolin-2-yl)piperidine-2,6-dione]",0.72 nM
10,"COc1c(C(=O)N2Cc3cc(C(F)(F)F)ccc3[C@@H]2C)ccc2c1[C@@H](C)N([C@H]1CCC(=O)NC1=O)C2=O [Compound 35, (S)-3-((R)-4-methoxy-3-methyl-5-((S)-1-methyl-5-(trifluoromethyl)isoindoline-2-carbonyl)-1-oxoisoindolin-2-yl)piperidine-2,6-dione]",3.3 nM
11,"C[C@H]1c2ccc(C(F)(F)F)cc2CN1C(=O)c1ccc2c(c1)CN(C1CCC(=O)NC1=O)C2=O (stereo partly drawn) [Compound 38, 3-(5-((S)-1-methyl-5-(trifluoromethyl)isoindoline-2-carbonyl)-1-oxoisoindolin-2-yl)piperidine-2,6-dione]",7.6 nM
12,"C[C@@H]1c2cc(C(=O)N3Cc4c(ccc(Cl)c4F)[C@@H]3CN3CC4CCC3C4)ccc2C(=O)N1[C@H]1CCC(=O)NC1=O (stereo partly drawn) [Compound 10, (3S)-3-((3R)-5-((1R)-1-((2-azabicyclo[2.2.1]heptan-2-yl)methyl)-5-chloro-4-fluoroisoindoline-2-carbonyl)-3-methyl-1-oxoisoindolin-2-yl)piperidine-2,6-dione]",0.71 nM
13,"COc1ccc2c(c1Br)CN(C(=O)c1ccc3c(c1)[C@@H](C)N([C@H]1CCC(=O)NC1=O)C3=O)[C@H]2CN(C)C [Compound 14, (S)-3-((R)-5-((R)-4-bromo-1-((dimethylamino)methyl)-5-methoxyisoindoline-2-carbonyl)-3-methyl-1-oxoisoindolin-2-yl)piperidine-2,6-dione]",0.95 nM
14,"COc1c(Br)ccc2c1CN(C(=O)c1ccc3c(c1)[C@@H](C)N([C@H]1CCC(=O)NC1=O)C3=O)[C@H]2C [Compound 22, (S)-3-((R)-5-((S)-5-bromo-4-methoxy-1-methylisoindoline-2-carbonyl)-3-methyl-1-oxoisoindolin-2-yl)piperidine-2,6-dione]",1.3 nM
15,"Cc1ccc2c(c1F)CN(C(=O)c1ccc3c(c1)[C@@H](C)N([C@H]1CCC(=O)NC1=O)C3=O)[C@H]2C [Compound 26, (S)-3-((R)-5-((S)-4-fluoro-1,5-dimethylisoindoline-2-carbonyl)-3-methyl-1-oxoisoindolin-2-yl)piperidine-2,6-dione]",1.7 nM
16,"C[C@@H]1c2cc(C(=O)N3Cc4c(ccc(Cl)c4F)[C@@H]3CN3CCCC3)ccc2C(=O)N1[C@H]1CCC(=O)NC1=O [Compound 4, (S)-3-((R)-5-((R)-5-chloro-4-fluoro-1-(pyrrolidin-1-ylmethyl)isoindoline-2-carbonyl)-3-methyl-1-oxoisoindolin-2-yl)piperidine-2,6-dione]",0.42 nM
